This assay addresses MCH receptor (Homo sapiens, UniProt Q99705). Nature of the assay: High throughput functional screening FLIPR/FDSS6000: inhibition of MCH-evoked intracellular Ca2+ changes. The assay is classed as cell-based. As to conditions: read-out: class. From the text:
Subsequently, a functional based assay was used to confirm the lead hits, referred to as FLIPR™ (the Fluorometric Imaging Plate Reader) and FDSS6000™ (Functional Drug Screening System). This assay utilized 3 non-endozenous, constitutively active version of the MCH receptor.
The FLIPR and FDSS assays are able to detect intracellular Ca^2+ concentration in cells, which can be utilized to assess receptor activation and determine whether a candidate compound is an, for example, antagonist, inverse agonist or agonist to a Gq-coupled receptor. The concentration of free Ca^2+ in the cytosol of any cell is extremely low, whereas its concentration in the extracellular fluid and endoplasmic reticulum (ER) is very high. Thus, there is a large gradient tending to drive Ca^2+ into the cytosol across both the plasma membrane and ER. The FLIPR™ and FDSS6000™ systems (Molecular Devices Corporation, HAMAMATSU Photonics K.K.) are designed to perform functional cell-based assays, such as the measurement of intracellular calcium for high-throughput screening, The measurement of fluorescent is associated with calcium release upon activation of the Gq-coupled receptors.
Fluorometric Imaging Plate Reader system was used to allow for rapid, kinetic measurements of intracellular fluorescence in 96 well microplates (or 384 well microplates). Simultaneous measurements of fluorescence in all wells can be made by FLIPR or FDSS6000™ every second with high sensitivity and precision. These systems are ideal for measuring cell-based functional assays such as monitoring the intracellular calcium fluxes that occur within seconds after activation of the Gq coupled receptor.
Briefly, the cells are seeded into 96 well at 5.5×10^4 cells/well with complete culture media (Dulbecco's Modified Eagle Medium with 10% fetal bovine serum, 2 mMi L-glutamine, 1 mM sodium pyruvate and 0.5 mg/ml G418, pH 7.4) for the assay next day. On the day of assay, the media is removed and the cells are incubated with 100 μl of loading buffer (4 μM Fluo4-AM in complete culture media containing 2.5 mM Probenicid, 0.5 mg/ml and 0.2% bovine serum albumin) in 5% CO2 incubator at 37° C. for 1 hr. The loading buffer is removed, and the cells are washed with wash buffer (Hank's Balanced Salt Solution containing 2.5 mM Probenicid, 20 mM HEPES, 0.5 mg/ml and 0.2% bovine serum albumm, pH 7.4)). One hundred fifty μl of wash buffer containing various concentrations of test compound is added to the cells, and the cells are incubated in 5% CO2 incubator at 37° C. for 3 min. Fifty μl of wash buffer containing various concentration of MCH are added to each well, and transient changes in [Ca^2+]i evokled bee MCH are monoitored using the FLIPR, or FDSS in 96 shell plates at Ex. 488 nm and Em. 530 nm for 290 second. When antagonist activity of compound is tested, 50 nM of MCH is used.
Use of FLIPR™ and FDSS6000™ can be accomplished by following manufacturer's instruction (Molecular Device Corporation and HAMAMATSU Photonics K.K.).

Setting [1] is: class by percent of control at 10^−7 M or by IC50.
The mark [2] stands for this setting: class by percent of control at 10^-7 M or by IC50.

Where two headings read alike, the source gives them in different places.

Regarding `CC(NC(=O)[C@H]1CC[C@@H](Nc2nc(N(C)C)c3cc(F)c(F)cc3n2)CC1)c1ccc(Br)cc1` (relative stereo) [Example 1008, cis-N-[1-(4-bromophenyl)ethyl]-4-{[4-(dimethylamino)-6,7-difluoroquinazolin-2-yl]amino}cyclohexanecarboxamide], the IC50 under setting [1] is 50 to 200 nM.

As for `CN(C)c1nc(N[C@H]2CC[C@@H](CNC(=O)C(O)c3c(F)cccc3F)CC2)nc2ccccc12` (relative stereo) [Example 1092, 2-(2,6-difluorophenyl)-N-[(cis-4-{[4-(dimethylamino)quinazolin-2-yl]amino}cyclohexyl)methyl]-2-hydroxyacetamide], the IC50 under setting [1] is > 200 nM.

In the case of `CN(C)c1nc(N[C@H]2CC[C@@H](CNC(=O)C(O)c3cccc(F)c3F)CC2)nc2ccccc12` (relative stereo) [Example 1093, 2-(2,3-difluorophenyl)-N-[(cis-4-{[4-(dimethylamino)quinazolin-2-yl]amino}cyclohexyl)methyl]-2-hydroxyacetamide], the IC50 under setting [1] was > 200 nM.

Regarding `CN(C)c1nc(N[C@H]2CC[C@@H](CNC(=O)C(O)c3cc(F)ccc3F)CC2)nc2ccccc12` (relative stereo) [Example 1094, 2-(2,5-difluorophenyl)-N-[(cis-4-{[4-(dimethylamino)quinazolin-2-yl]amino}cyclohexyl)methyl]-2-hydroxyacetamide], under setting [1], the IC50 is > 200 nM.

`CN(C)c1nc(N[C@H]2CC[C@@H](CNC(=O)C(O)c3ccc(F)c(F)c3)CC2)nc2ccccc12` (relative stereo) [Example 1095, 2-(3,4-difluorophenyl)-N-[(cis-4-{[4-(dimethylamino)quinazolin-2-yl]amino}cyclohexyl)methyl]-2-hydroxyacetamide]: the IC50 under setting [1] was > 200 nM.

Turning to `COc1ccc(C(O)C(=O)NC[C@H]2CC[C@@H](Nc3nc(N(C)C)c4ccccc4n3)CC2)cc1` (relative stereo) [Example 1096, N-[(cis-4-{[4-(dimethylamino)quinazolin-2-yl]amino}-cyclohexyl)-methyl]-2-hydroxy-2-(4-methoxyphenyl)acetamide], the IC50 under setting [1] fell in the range of 50 to 200 nM.

In the case of `CN(C)c1nc(N[C@H]2CC[C@@H](CNC(=O)C(O)c3ccc(Br)cc3)CC2)nc2ccccc12` (relative stereo) [Example 1098, 2-(4-bromophenyl)-N-[(cis-4-{[4-(dimethylamino)quinazolin-2-yl]amino}cyclohexyl)methyl]-2-hydroxyacetamide], under setting [1], the IC50 is > 200 nM.

Take `CN(C)c1nc(N[C@H]2CC[C@@H](CNC(=O)C(O)c3ccc(Cl)cc3)CC2)nc2ccccc12` (relative stereo) [Example 1099, 2-(4-chlorophenyl)-N-[(cis-4-{[4-(dimethylamino)quinazolin-2-yl]amino}cyclohexyl)methyl]-2-hydroxyacetamide]: the IC50 under setting [1] is > 200 nM.

On to `CN(C)c1nc(N[C@H]2CC[C@@H](CNC(=O)C(O)c3cccc(C(F)(F)F)c3)CC2)nc2ccccc12` (relative stereo) [Example 1104, N-[(cis-4-{[4-(dimethylamino)quinazolin-2-yl]amino}-cyclohexyl)-methyl]-2-hydroxy-2-[3-(trifluoromethyl)phenyl]-acetamide], for which, under setting [1], the IC50 was in the range of 50 to 200 nM.

Take `COc1ccc(C(O)C(=O)N[C@H]2CC[C@@H](Nc3nc(N(C)C)c4ccccc4n3)CC2)cc1` (relative stereo) [Example 1105, N-(cis-4-{[4-(dimethylamino)quinazolin-2-yl]amino}cyclohexyl)-2-hydroxy-2-(4-methoxyphenyl)acetamide]: the IC50 under setting [1] is < 50 nM.

As to `CN(C)c1nc(N[C@H]2CC[C@@H](NC(=O)C(O)c3ccc(Cl)cc3)CC2)nc2ccccc12` (relative stereo) [Example 1106, 2-(4-chlorophenyl)-N-(cis-4-{[4-(dimethylamino)quinazolin-2-yl]amino}cyclohexyl)-2-hydroxyacetamide], the IC50 under setting [1] was 50 to 200 nM.

Turning to `CN(C)c1nc(N[C@H]2CC[C@@H](NC(=O)C(O)c3ccc(Br)cc3)CC2)nc2ccccc12` (relative stereo) [Example 1107, 2-(4-bromophenyl)-N-(cis-4-{[4-(dimethylamino)quinazolin-2-yl]amino}cyclohexyl)-2-hydroxyacetamide], the IC50 under setting [1] lay in the range of 50 to 200 nM.

As for `CN(C)c1nc(N[C@H]2CC[C@@H](NC(=O)C(O)c3ccc(F)c(F)c3)CC2)nc2ccccc12` (relative stereo) [Example 1108, 2-(3,4-difluorophenyl)-N-(cis-4-{[4-(dimethylamino)quinazolin-2-yl]amino}cyclohexyl)-2-hydroxyacetamide], the IC50 under setting [1] lay within 50 to 200 nM.

In the case of `CN(C)c1nc(N[C@H]2CC[C@@H](NC(=O)C(O)c3cccc(F)c3F)CC2)nc2ccccc12` (relative stereo) [Example 1109, 2-(2,3-difluorophenyl)-N-(cis-4-{[4-(dimethylamino)quinazolin-2-yl]amino}cyclohexyl)-2-hydroxyacetamide], under setting [1], the IC50 is > 200 nM.

As for `CN(C)c1nc(N[C@H]2CC[C@@H](NC(=O)C(O)c3c(F)cccc3F)CC2)nc2ccccc12` (relative stereo) [Example 1110, 2-(2,6-difluorophenyl)-N-(cis-4-{[4-(dimethylamino)quinazolin-2-yl]amino}cyclohexyl)-2-hydroxyacetamide], the IC50 under setting [1] is > 200 nM.

Consider `CN(C)c1nc(N[C@H]2CC[C@@H](NC(=O)C(O)c3cccc(C(F)(F)F)c3)CC2)nc2ccccc12` (relative stereo) [Example 1112, N-(cis-4-{[4-(dimethylamino)quinazolin-2-yl]amino}cyclohexyl)-2-hydroxy-2-[3-(trifluoromethyl)phenyl]acetamide], for which the IC50 under setting [1] is < 50 nM.

Consider `COc1cccc(C(O)C(=O)N[C@H]2CC[C@@H](Nc3nc(N(C)C)c4ccccc4n3)CC2)c1` (relative stereo) [Example 1113, N-(cis-4-{[4-(dimethylamino)quinazolin-2-yl]amino}cyclohexyl)-2-hydroxy-2-(3-methoxyphenyl)acetamide], for which, under setting [1], the IC50 was < 50 nM.

Take `CN(C)c1nc(N[C@H]2CC[C@@H](NC(=O)C(O)c3cc(F)ccc3F)CC2)nc2ccccc12` (relative stereo) [Example 1115, 2-(2,5-difluorophenyl)-N-(cis-4-{[4-(dimethylamino)quinazolin-2-yl]amino}cyclohexyl)-2-hydroxyacetamide]: the IC50 under setting [1] lay in the range of 50 to 200 nM.

Regarding `CC(NC(=O)[C@H]1CC[C@@H](Nc2nc(N(C)C)c3ccccc3n2)CC1)c1ccc(F)cc1` (relative stereo) [Example 1138, cis-4-{[4-(dimethylamino)quinazolin-2-yl]amino}-N-[1-(4-fluorophenyl)ethyl]cyclohexanecarboxamide], under setting [1], the IC50 was < 50 nM.

Turning to `CC(NC(=O)[C@H]1CC[C@@H](Nc2nc(N(C)C)c3ccccc3n2)CC1)c1ccc(Br)cc1` (relative stereo) [Example 1140, cis-N-[1-(4-bromophenyl)ethyl]-4-{[4-(dimethylamino)quinazolin-2-yl]amino}cyclohexanecarboxamide], the IC50 under setting [1] was < 50 nM.

In the case of `CN(C)c1nc(N[C@H]2CC[C@@H](NC(=O)NC34CC5CC(CC(C5)C3)C4)CC2)nc2ccccc12` (relative stereo) [compound 5], the IC50 under setting [2] was > 200 nM.

In the case of `COC(=O)[C@H](CCSC)NC(=O)N[C@H]1CC[C@@H](Nc2nc(N(C)C)c3ccccc3n2)CC1` (relative stereo) [compound 41, methyl N-{[(cis-4-{[4-(dimethylamino)quinazolin-2-yl]amino}cyclohexyl)amino]carbonyl}methioninate], under setting [2], the IC50 was < 50 nM.

With `COC(=O)[C@H](Cc1ccccc1)NC(=O)N[C@H]1CC[C@@H](Nc2nc(N(C)C)c3ccccc3n2)CC1` (relative stereo) [compound 62, methyl N-{[(cis-4-{[4-(dimethylamino)quinazolin-2-yl]amino}cyclohexyl)amino]carbonyl}phenylalaninate], the IC50 under setting [2] is < 50 nM.

Turning to `CC(NC(=O)N[C@H]1CC[C@@H](Nc2nc(N(C)C)c3ccccc3n2)CC1)c1ccccc1` (relative stereo) [compound 65, N-(cis-4-{[4-(dimethylamino)quinazolin-2-yl]amino}cyclohexyl)-N′-(1-phenylethyl)urea], the IC50 under setting [2] is < 50 nM.

The values are drawn from patent US20070010671A1, “Novel quinazoline derivatives and methods of treatment related to the use thereof” (priority 2003, published 2007).
